Our source for the MIC values is ChEMBL document CHEMBL3397028, “Synthesis and antimicrobial activity of novel benzoxazine sulfonamide derivatives” (2015).

What is called MIC is the least concentration at which growth counts as inhibited. Higher therefore signals a need for much substance.

In brackets after ≈: the same amount, converted by molar mass.

What all share (assay type): functional
The subject of assay [1] is Priestia megaterium. The assay is described as follows: Antimicrobial activity against Bacillus megaterium MTCC 3382 after 18 hrs by broth micro dilution method. The note with it: MTCC 3382, 18 h.
For assay [2], the system named is Xanthomonas campestris. The assay is described as follows: Antimicrobial activity against Xanthomonas campestris after 18 hrs by broth micro dilution method.
Assay [3] deals with Pseudomonas aeruginosa. Put plainly: Antimicrobial activity against Pseudomonas aeruginosa MTCC 1034 after 18 hrs by broth micro dilution method. The note with it: MTCC 1034, 18 h.
Assay [4] relates to Escherichia coli. Put plainly: Antimicrobial activity against Escherichia coli MTCC 1089 after 18 hrs by broth micro dilution method. To be noted: MTCC 1089, 18 h.
The subject of assay [5] is Candida albicans. The assay is described as follows: Antimicrobial activity against Candida albicans MTCC 183 after 48 to 72 hrs by broth micro dilution method.

On to `Cc1cc2c(cc1S(=O)(=O)N1CCN(c3ccc(C(F)(F)F)cc3)CC1)N(CC(=O)c1ccccc1)C(=O)CO2`, for which the minimum inhibitory concentration (MIC) in assay [1], in assay [2], in assay [3], in assay [4] and in assay [5] was 250 µg/mL (≈ 436 µM) in each case.

For the molecule `OC(Cn1cncn1)(Cn1cncn1)c1ccc(F)cc1F` [FLUCONAZOLE], the minimum inhibitory concentration (MIC) in assay [5] was found to be 32 µg/mL (≈ 104 µM).

Regarding `COc1ccccc1N1CCN(S(=O)(=O)c2cc3c(cc2C)OCC(=O)N3CC(=O)c2ccccc2)CC1`, the MIC came to 62.5 µg/mL (≈ 117 µM) in assay [1]; 62.5 µg/mL (≈ 117 µM) in assay [2]; 125 µg/mL (≈ 233 µM) in assay [3]; 125 µg/mL (≈ 233 µM) in assay [4]; 62.5 µg/mL (≈ 117 µM) in assay [5].

Regarding `COc1ccccc1N1CCN(S(=O)(=O)c2cc3c(cc2C)OCC(=O)N3)CC1`, the MIC worked out at 250 µg/mL (≈ 599 µM) in assay [1]; 500 µg/mL (≈ 1200 µM) in assay [2]; 500 µg/mL (≈ 1200 µM) in assay [3]; 500 µg/mL (≈ 1200 µM) in assay [4]; 500 µg/mL (≈ 1200 µM) in assay [5].

Turning to `Cc1cc2c(cc1S(=O)(=O)N1CCN(c3ccc(C(F)(F)F)cc3)CC1)NC(=O)CO2`, the MIC in assay [1] came to 250 µg/mL (≈ 549 µM); in assay [2], 500 µg/mL (≈ 1100 µM); in assay [3], 250 µg/mL (≈ 549 µM); in assay [4] it was 500 µg/mL (≈ 1100 µM); in assay [5], 500 µg/mL (≈ 1100 µM).

Consider `COc1ccccc1N1CCN(CCCNS(=O)(=O)c2ccc3c(c2)NC(=O)CO3)CC1`, for which the MIC in assay [1] turned out to be 31.2 µg/mL (≈ 67.9 µM); in assay [2] it was 125 µg/mL (≈ 271 µM); in assay [3] it was 125 µg/mL (≈ 271 µM); in assay [4], 250 µg/mL (≈ 543 µM); in assay [5], 62.5 µg/mL (≈ 136 µM).

As for `Cc1cc2c(cc1S(=O)(=O)NCCCN1CCN(c3ccc(C(F)(F)F)cc3)CC1)NC(=O)CO2`, the MIC in assay [1] came to 62.5 µg/mL (≈ 122 µM); in assay [2] it was 62.5 µg/mL (≈ 122 µM); in assay [3] it was 250 µg/mL (≈ 488 µM); in assay [4], 250 µg/mL (≈ 488 µM); in assay [5] it was 125 µg/mL (≈ 244 µM).

In the case of `COc1ccccc1N1CCN(S(=O)(=O)c2cc3c(cc2C)OCC(=O)N3CC(=O)c2ccc(-c3ccccc3)cc2)CC1`, the minimum inhibitory concentration (MIC) was found to be 62.5 µg/mL (≈ 102 µM) in assay [1]; 125 µg/mL (≈ 204 µM) in assay [2]; 250 µg/mL (≈ 409 µM) in assay [3]; 500 µg/mL (≈ 817 µM) in assay [4]; 500 µg/mL (≈ 817 µM) in assay [5].

With `COc1ccccc1N1CCN(CCCNS(=O)(=O)c2cc3c(cc2C)OCC(=O)N3)CC1`, the MIC is 250 µg/mL (≈ 527 µM) in assay [1]; 500 µg/mL (≈ 1050 µM) in assay [2]; 500 µg/mL (≈ 1050 µM) in assay [3]; 500 µg/mL (≈ 1050 µM) in assay [4]; 250 µg/mL (≈ 527 µM) in assay [5].

On to `COc1ccccc1N1CCN(S(=O)(=O)c2cc3c(cc2C)OCC(=O)N3CC(=O)c2ccc(C)cc2)CC1`, for which the MIC in assay [1] amounted to 125 µg/mL (≈ 227 µM); in assay [2], 125 µg/mL (≈ 227 µM); in assay [3], 62.5 µg/mL (≈ 114 µM); in assay [4], 62.5 µg/mL (≈ 114 µM); in assay [5] it was 62.5 µg/mL (≈ 114 µM).

As to `O=C1COc2ccc(S(=O)(=O)NCCCN3CCN(c4ccccc4F)CC3)cc2N1`, the MIC in assay [1] came to 31.2 µg/mL (≈ 69.7 µM); in assay [2], 62.5 µg/mL (≈ 139 µM); in assay [3] it was 62.5 µg/mL (≈ 139 µM); in assay [4], 125 µg/mL (≈ 279 µM); in assay [5], 125 µg/mL (≈ 279 µM).

As to `Cc1cc2c(cc1S(=O)(=O)NCCCN1CCSCC1)NC(=O)CO2`, the MIC in assay [1] came to 125 µg/mL (≈ 324 µM); in assay [2], 250 µg/mL (≈ 648 µM); in assay [3], 500 µg/mL (≈ 1300 µM); in assay [4], 500 µg/mL (≈ 1300 µM); in assay [5], 250 µg/mL (≈ 648 µM).

With `Cc1cc2c(cc1S(=O)(=O)N1CCN(c3ccc(C(F)(F)F)cc3)CC1)N(CC(=O)c1ccc([N+](=O)[O-])cc1)C(=O)CO2`, the minimal inhibitory concentration (MIC) in assay [1] came to 31.2 µg/mL (≈ 50.5 µM); in assay [2], 125 µg/mL (≈ 202 µM); in assay [3], 31.2 µg/mL (≈ 50.5 µM); in assay [4], 62.5 µg/mL (≈ 101 µM); in assay [5] it was 31.2 µg/mL (≈ 50.5 µM).

As for `Cc1cc2c(cc1S(=O)(=O)NCCCN1CCN(c3ccccc3)CC1)NC(=O)CO2`, the minimum inhibitory concentration (MIC) in assay [1], in assay [2], in assay [3], in assay [4] and in assay [5] was 250 µg/mL (≈ 562 µM) in each case.

For the molecule `O=C1COc2ccc(S(=O)(=O)NCCCN3CCN(c4ccccc4)CC3)cc2N1`, the MIC in assay [1] is 250 µg/mL (≈ 581 µM); in assay [2], 500 µg/mL (≈ 1160 µM); in assay [3] it was 500 µg/mL (≈ 1160 µM); in assay [4] it was 500 µg/mL (≈ 1160 µM); in assay [5], 500 µg/mL (≈ 1160 µM).

As for `COc1ccc(C(=O)CN2C(=O)COc3cc(C)c(S(=O)(=O)N4CCN(c5ccc(C(F)(F)F)cc5)CC4)cc32)cc1`, the MIC in assay [1] amounted to 62.5 µg/mL (≈ 104 µM); in assay [2], 250 µg/mL (≈ 414 µM); in assay [3], 125 µg/mL (≈ 207 µM); in assay [4], 250 µg/mL (≈ 414 µM); in assay [5] it was 250 µg/mL (≈ 414 µM).

For `O=C1COc2ccc(S(=O)(=O)NCCCN3CCN(c4ccc(F)cc4)CC3)cc2N1`, the MIC in assay [1] is 250 µg/mL (≈ 557 µM); in assay [2], 125 µg/mL (≈ 279 µM); in assay [3] it was 62.5 µg/mL (≈ 139 µM); in assay [4] it was 500 µg/mL (≈ 1110 µM); in assay [5], 250 µg/mL (≈ 557 µM).

For the molecule `O=C1COc2ccc(S(=O)(=O)NCCCN3CCN(c4ccc(C(F)(F)F)cc4)CC3)cc2N1`, the MIC in assay [1] is 62.5 µg/mL (≈ 125 µM); in assay [2], 125 µg/mL (≈ 251 µM); in assay [3], 125 µg/mL (≈ 251 µM); in assay [4] it was 500 µg/mL (≈ 1000 µM); in assay [5], 125 µg/mL (≈ 251 µM).

`COc1ccccc1N1CCN(S(=O)(=O)c2cc3c(cc2C)OCC(=O)N3CC(=O)c2ccc(Cl)cc2)CC1`: the MIC is 250 µg/mL (≈ 439 µM) in assay [1]; 125 µg/mL (≈ 219 µM) in assay [2]; 250 µg/mL (≈ 439 µM) in assay [3]; 250 µg/mL (≈ 439 µM) in assay [4]; 250 µg/mL (≈ 439 µM) in assay [5].

For the molecule `Cc1cc2c(cc1S(=O)(=O)N1CCN(c3ccc(C(F)(F)F)cc3)CC1)N(CC(=O)c1cccs1)C(=O)CO2`, the minimum inhibitory concentration (MIC) came to 31.2 µg/mL (≈ 53.9 µM) in assay [1]; 125 µg/mL (≈ 216 µM) in assay [2]; 31.2 µg/mL (≈ 53.9 µM) in assay [3]; 125 µg/mL (≈ 216 µM) in assay [4]; 31.2 µg/mL (≈ 53.9 µM) in assay [5].

With `Cc1cc2c(cc1S(=O)(=O)N1CCN(c3ccc(C(F)(F)F)cc3)CC1)N(CC(=O)c1ccc(-c3ccccc3)cc1)C(=O)CO2`, the MIC in assay [1] worked out at 125 µg/mL (≈ 192 µM); in assay [2] it was 125 µg/mL (≈ 192 µM); in assay [3] it was 125 µg/mL (≈ 192 µM); in assay [4], 250 µg/mL (≈ 385 µM); in assay [5] it was 125 µg/mL (≈ 192 µM).

As for `CO[C@H]1/C=C/O[C@@]2(C)Oc3c(C)c(O)c4c(O)c(c(/C=N/N5CCN(C)CC5)c(O)c4c3C2=O)NC(=O)/C(C)=C\C=C\[C@H](C)[C@H](O)[C@@H](C)[C@@H](O)[C@@H](C)[C@H](OC(C)=O)[C@@H]1C` [RIFAMPIN], the MIC stood at 64 µg/mL (≈ 77.8 µM) in assay [1], 32 µg/mL (≈ 38.9 µM) in assay [2], 32 µg/mL (≈ 38.9 µM) in assay [3] and 64 µg/mL (≈ 77.8 µM) in assay [4].

As to `Cc1cc2c(cc1S(=O)(=O)NCCCN1CCN(c3ccccc3F)CC1)NC(=O)CO2`, the MIC in assay [1], in assay [2], in assay [3], in assay [4] and in assay [5] was 250 µg/mL (≈ 540 µM) in each case.

As for `COc1ccc(C(=O)CN2C(=O)COc3cc(C)c(S(=O)(=O)N4CCN(c5ccccc5OC)CC4)cc32)cc1`, the MIC was found to be 31.2 µg/mL (≈ 55.2 µM) in assay [1]; 62.5 µg/mL (≈ 110 µM) in assay [2]; 31.2 µg/mL (≈ 55.2 µM) in assay [3]; 62.5 µg/mL (≈ 110 µM) in assay [4]; 31.2 µg/mL (≈ 55.2 µM) in assay [5].

With `Cc1ccc(C(=O)CN2C(=O)COc3cc(C)c(S(=O)(=O)N4CCN(c5ccc(C(F)(F)F)cc5)CC4)cc32)cc1`, the MIC came out at 125 µg/mL (≈ 213 µM) in assay [1]; 125 µg/mL (≈ 213 µM) in assay [2]; 31.2 µg/mL (≈ 53.2 µM) in assay [3]; 62.5 µg/mL (≈ 106 µM) in assay [4]; 250 µg/mL (≈ 425 µM) in assay [5].

Consider `COc1ccccc1N1CCN(S(=O)(=O)c2cc3c(cc2C)OCC(=O)N3CC(=O)c2ccc([N+](=O)[O-])cc2)CC1`, for which the MIC amounted to 62.5 µg/mL (≈ 108 µM) in assay [1]; 125 µg/mL (≈ 215 µM) in assay [2]; 250 µg/mL (≈ 431 µM) in assay [3]; 250 µg/mL (≈ 431 µM) in assay [4]; 250 µg/mL (≈ 431 µM) in assay [5].

For `Cc1cc2c(cc1S(=O)(=O)N1CCN(c3ccc(C(F)(F)F)cc3)CC1)N(CC(=O)c1ccc(Cl)cc1)C(=O)CO2`, the MIC in assay [1] stood at 250 µg/mL (≈ 411 µM); in assay [2], 500 µg/mL (≈ 822 µM); in assay [3], 500 µg/mL (≈ 822 µM); in assay [4], 500 µg/mL (≈ 822 µM); in assay [5], 500 µg/mL (≈ 822 µM).

Turning to `COc1ccccc1N1CCN(S(=O)(=O)c2cc3c(cc2C)OCC(=O)N3CC(=O)c2cccs2)CC1`, the MIC stood at 500 µg/mL (≈ 923 µM) in assay [1]; 250 µg/mL (≈ 462 µM) in assay [2]; 250 µg/mL (≈ 462 µM) in assay [3]; 250 µg/mL (≈ 462 µM) in assay [4]; 250 µg/mL (≈ 462 µM) in assay [5].
